Test results from publication PMC4076632, “VAV3 mediates resistance to breast cancer endocrine therapy” (Breast Cancer Research : BCR, 2014).

Target: T1, estrogen receptor α (ERα) (Homo sapiens, UniProt P03372)
T1 construct: gene ESR1
T1 sequence (P03372 1-595): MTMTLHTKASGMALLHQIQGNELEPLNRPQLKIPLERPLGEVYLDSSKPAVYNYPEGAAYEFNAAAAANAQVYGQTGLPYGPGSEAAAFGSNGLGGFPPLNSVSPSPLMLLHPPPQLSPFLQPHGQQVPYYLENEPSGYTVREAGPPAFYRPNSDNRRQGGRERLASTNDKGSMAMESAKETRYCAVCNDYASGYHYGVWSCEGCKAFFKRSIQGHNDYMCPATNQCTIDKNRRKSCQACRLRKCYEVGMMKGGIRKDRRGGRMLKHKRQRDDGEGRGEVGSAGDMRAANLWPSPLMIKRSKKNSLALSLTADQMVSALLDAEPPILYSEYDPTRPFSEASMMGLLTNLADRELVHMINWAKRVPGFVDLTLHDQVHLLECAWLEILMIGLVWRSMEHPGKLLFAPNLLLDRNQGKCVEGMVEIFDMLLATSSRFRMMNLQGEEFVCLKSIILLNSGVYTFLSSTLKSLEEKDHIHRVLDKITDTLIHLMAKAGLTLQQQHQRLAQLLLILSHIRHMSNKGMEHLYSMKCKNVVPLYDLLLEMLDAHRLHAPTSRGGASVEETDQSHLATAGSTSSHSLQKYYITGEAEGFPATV
Experiment: ERα agonist fluoligand competition assay (Cerep) with fluorescein-labeled estradiol
Assay type: binding

Ki: 26 µM
SMILES: OCc1ccc(-c2nn(Cc3ccccc3)c3ccccc23)o1 [YC-1, 3-(5′-hydroxymethyl-2′-furyl)-1-benzylindazole]
